Data set [1] is described as follows: In situ AFM of growth hillocks on the (100) surface of COM crystals. How it is done:
Atomic force microscopy (AFM, Bruker Multimode 4) was used to study the COM crystal surface topography at a nanometer length scale. Samples were mounted on a disk covered with a thin layer of thermally curable epoxy (MasterBond EP21AOLV). The epoxy was partially cured in an oven for ca. 20 min at 60° C. prior to transferring the crystals obtained from bulk crystallization. The crystals were immobilized on the epoxy with the or [010] direction oriented normal to the specimen surface by placing the sample in an oven at 60° C. for two to three hours to completely cure the epoxy. The cantilevers used in this study were silicon nitride probes with gold reflex coating and a spring constant of 0.15 N/m (Olympus, TR800PSA). AFM was also employed to observe the kinetics of crystal growth in supersaturated calcium oxalate solutions by monitoring the velocity of step advancement on the (010) surface and (100) surface of COM crystals in real time. […]
The interaction between hydroxycitrate and the (100) surface of COM crystals was also observed using atomic force microscopy. The growth of hillocks by screw dislocation on the (100) surface of COM crystals were measured in real time in the absence and in the presence of 0.25 μg/mL HCA (FIGS. 4A-4F). […]

Data set [2] in a line: Upper limit of metastability of urine from patients with kidney stones. Set-up: species or system human. The settings on record: for inhibition: calcium oxalate molar product at the point of crystallization: 8 urine samples, 37° C. for 4 hours. How it is done: The crystal inhibition activity of hydroxycitrate in human urine was determined using measurement of upper limit of metastability. For this experiment, 8 urine samples from patients with kidney stones were used. The urine was either spiked with a known amount of an inhibitor or spiked with saline as control. Ten aliquots of each urine sample were added to the wells of a microtiter plate and increasing amounts of oxalate was added. The plates were incubated at 37° C. for 4 hours and then turbidity was measured using an enzyme-linked immunosorbent assay (ELISA) plate reader. The well with the lowest amount of oxalate in which increased turbidity is noted is considered the crystallization point. Multiplying the calcium concentration of the urine and the oxalate concentration (original oxalate plus the amount of oxalate added) at the point of crystallization provides a rough measure of saturation at the point of crystallization.
The upper limit of metastability assay was also used to compare the inhibitory activity of hydroxycitrate to that of other tricarboxyllic acids: citrate, isocitrate, and tricarballylate. […] Each of tricarboxyllic acids was added to urine samples from stone forming patients to provide a final concentration of 2 mM. The data are expressed as the increase of the calcium oxalate molar product at crystallization compared to the control urine sample without any inhibitor added.

Data set [3] is described as follows: In situ AFM of growth hillocks on the (010) face of COM crystals (step velocity). The method, then: Atomic force microscopy (AFM, Bruker Multimode 4) was used to study the COM crystal surface topography at a nanometer length scale. Samples were mounted on a disk covered with a thin layer of thermally curable epoxy (MasterBond EP21AOLV). The epoxy was partially cured in an oven for ca. 20 min at 60° C. prior to transferring the crystals obtained from bulk crystallization. The crystals were immobilized on the epoxy with the or [010] direction oriented normal to the specimen surface by placing the sample in an oven at 60° C. for two to three hours to completely cure the epoxy. The cantilevers used in this study were silicon nitride probes with gold reflex coating and a spring constant of 0.15 N/m (Olympus, TR800PSA). AFM was also employed to observe the kinetics of crystal growth in supersaturated calcium oxalate solutions by monitoring the velocity of step advancement on the (010) surface and (100) surface of COM crystals in real time. The experiment was designed to assess the effects of a range of concentration of hydroxycitrate on step growth using a fluid cell (Bruker, MTFML) to produce an environment that mimics in situ crystallization. The fluid cell had two ports for inlet and outlet flow to maintain constant supersaturation during AFM measurements. A silicon O-ring was used to ensure no liquid leakage would occur while solutions were being continuously replenished. A dual syringe pump (CHEMYX, Fusion 200) was used to flow the solutions into the fluid cell.
Hydroxycitrate has four stereoisomers, […], (2S,3R), (2S,3S), and (2R,3R) (FIG. 1). In order to investigate the interaction between hydroxycitrate and COM crystal surface at a molecular level, atomic force microscopy was utilized. The growth of hillocks by screw dislocation on the (010) face of COM crystals were measured in real time in the absence and in the presence of 0.1 μg/mL HCA (FIGS. 2A-2F). Growth hillocks on (010) face are bounded by {021} and {12-1} faces. […] The temporal advancement of steps (i.e., step velocity) of the growth hillock in the absence and in the presence of a wide range of concentration of HCA was measured (FIGS. 3A-3B). […] These phenomena are conventional modes of crystal growth inhibition. […] This phenomenon confirms the role of HCA as a dissolving agent.

On the set-up of data set [4]: species or system human. The settings on record: in vivo. How it is done:
In order for hydroxycitrate to have a direct effect on calcium oxalate stone formation, it must be excreted in the urine. As preliminary evidence of renal excretion in humans, over the counter hydroxycitrate supplements (trade name Super CitraMax) was administered to a normal healthy subject at a dose of 4.3 mmoles of hydroxycitrate two times a day (total daily dose of 8.6 mmoles) for three days. The standard dose recommended by the manufacturer is 12.9 mmoles per day. On the third day a 24 hour urine collection was performed. Hydroxycitrate excretion was measured using ion chromatography. […] Peak 1 is urine citrate, peak 2 is hydroxycitrate. Using a standard curve created using a high purity hydroxycitrate standard, hydroxycitrate excretion was calculated to be 1.28 mmoles per day. Thus, approximately 15% of the oral hydroxycitrate dose was excreted in the urine.

Data set [5] in a line: Exposure of fully grown COM crystals to HCA: optical microscopy and AFM surface roughness. As to conditions: HCA (100 μg/mL) introduced at the end of crystallization period (3 days); optical micrographs. How it is done: Crystallization was carried out in a 20-mL glass vial by dissolving NaCl in deionized water then adding 0.7 mL of 10 mM CaCl2 stock solution which was prepared in advance. The sample vial was place in an oven set to 60° C. for one hour to ensure the crystallization was performed at 60° C. Subsequently 0.7 mL of […] Na2C2O4 stock solution was added to the solution dropwise while the solution was stirred at 400 rpm. To investigate the effect of hydroxycitrate […] COM crystallization, prepared hydroxycitrate stock solution was added to the solution dropwise at the end of three day crystallization period. A clean glass slide (ca. 1.3×1.3 cm^2) was placed at the bottom of the glass vial to readily collect the crystals prior to placing the vial in the oven. Final solution composition was set to be 0.7 mM CaCl2: 0.7 mM Na2C2O4: 150 mM NaCl and the amount of deionized water was adjusted to set the final volume to 10 mL. Crystallization was performed at 60° C. for three days without agitation. The glass slide was removed from the solution and dried at room temperature prior to analysis.
Morphology of COM crystals prepared in the absence and in the presence of OGMs were assessed and compared under optical microscope (Leica DM2500-M). Images were obtained in brightfield using reflectance. […]

The nature of data set [6]: Calcium ion selective electrode (ISE) measurement of COM crystallization kinetics. The settings on record: synthetic versus extracted hydroxycitrate, slope of free calcium ion depletion relative to control. The method, then: A calcium ion selective electrode (ISE, ThermoScientific with Orion 9720BNWP Ionplus® electrode) was used to measure the effect of organic growth modifiers (OGMs) on the kinetics of COM crystallization which measures the concentration of free calcium ions in solution. Samples were prepared in the similar manner as COM bulk crystallization. Final solution composition was set to be 0.5 mM CaCl2: 0.5 mM Na2C2O4: 150 mM NaCl and the measurements were performed at room temperature. During ISE measurements, the stir rate was adjusted to 1200 rpm to minimize the induction time for nucleation. OGM efficacy was measured by calculating the temporal depletion of calcium ion concentration (ppm range). The data was normalized by subtracting the concentration of the initial time point from each time point. The rate of depletion was calculated by measuring the initial slope of the crystal growth curve. The efficacy of synthetic and extracted hydroxycitrate was assessed using the percent inhibition, which was calculated by comparing the reduced slopes for each OGM relative to that of the control (i.e., absence of OGM). Prior to ISE measurements, the electrode was calibrated using a standard calcium solution (0.1 M, Orion Ion Plus), which was diluted with deionized water to three concentrations: 10^−4, 10^−3 and 10^−2 M. The ionic strength of each solution was adjusted using a standard solution (ISA, Thermo Scientific), which was added in a 1:50 volume ratio of ISA-to-standard.
Additionally, the inhibitory efficacy of synthetic and extracted HCA was observed. An ion selective electrode measures the free calcium ion in the solution in the course of experiments. The efficacy of both HCA molecules was measured by calculating the temporal depletion of free calcium ion concentration in COM growth solutions. The data was normalized by subtracting the concentration of the initial time point from all time points. The rate of depletion was calculated by measuring the initial slope of the crystal growth curve. The efficacy of the synthetic and extracted HCA was assessed using the percent inhibition, which was calculated by comparing the slopes for each molecule relative to that of the control (i.e., in the absence of HCA).

Where [7] appears, read: 2 mM final concentration, comparison of tricarboxylic acids.

“Also recorded” adds a separate entry of the source.

Take `O=C(O)CC(O)(C(=O)O)C(O)C(=O)O` (stereo not shown) [HCA, hydroxycitrate]: the “surface features of COM crystal” value in data set [1] (0.1 μg/mL HCA as printed) is recorded as “dissolves the COM crystal surface”; in data set [1] (0.25 μg/mL HCA) it was “etch pits start to form at step edges; also recorded: rapid formation of etch pits at the edge of steps”; in data set [3] (0.1 μg/mL HCA), “signs of dissolution; also recorded: dissolves the COM crystal surface”. In addition, the “inhibition: calcium oxalate molar product at the point of crystallization” value in data set [2] (1 mM final concentration) is given as “greater inhibition than the control urine”; in data set [2] (2 mM final concentration), “greater inhibition than the 1 mM hydroxycitrate”. Also, the “increase of the calcium oxalate molar product at crystallization compared to the control urine” value in data set [2] (setting [7]) is on record as “higher levels of inhibition compared to the other inhibitors”. In addition, the “step velocity of growth hillocks” value in data set [3] (<021> and <12-1> directions, low concentration of HCA (<0.06 μg/mL)) is given as “decrease; also recorded: slightly decreases”; in data set [3] (high concentration of HCA (>0.15 μg/mL)), “nearly zero; also recorded: ceases to zero”; in data set [3] (intermediate concentration (0.06 μg/mL<CHCA<0.15 μg/mL)), “negative velocity; also recorded: negative values”. In data set [4], the “fraction of the oral hydroxycitrate dose excreted in the urine” value is “approximately 15%”. The overall crystal morphology entry in data set [5] is on record as “remained the same as that of the control; also recorded: maintained the same overall morphology”.

As for `O.O=C([O-])CC(O)(C(=O)[O-])C(O)C(=O)[O-].[K+].[K+].[K+]` (stereo not shown) [synthetic HCA, potassium hydroxycitrate tribasic monohydrate], the “efficacy (percent inhibition) on COM crystallization” value was “comparable effect” in data set [6] (listed as sHCA, monohydrate) and “comparable” in data set [6] (monohydrate).

Turning to `O=C(O)CC(CC(=O)O)C(=O)O` [tricarballylate, reference compound], in data set [2] (setting [7]), the “difference of inhibition versus hydroxycitrate” value was “reached statistical significance”.

For “(−)-Hydroxycitric acid calcium salt [extracted HCA]”, the “efficacy (percent inhibition) on COM crystallization” value in data set [6] (calcium salt) is “comparable”; in data set [6] (listed as cHCA, calcium salt), “comparable effect”.

Source of the values: US10285961B2, “Organic acids as agents to dissolve calcium minerals in pathological calcification and uses thereof” (University of Houston System, priority 2014, dated 2019).
